Values of other authors, collected in patent US20170007630A1, “COMPOSITION AND METHOD OF DELIVERY OF L-ARABINOSE AND SELECT COMPOUNDS” (priority 2011, published 2017).

Columns and labels:
[1] = one study conducted in China
sucrase [2] = biological target: T1, sucrase (Homo sapiens, UniProt P14410); conditions: compared with sucrose
sucrase [3] = biological target: T1, sucrase

T1 sequence (P14410 whole entry): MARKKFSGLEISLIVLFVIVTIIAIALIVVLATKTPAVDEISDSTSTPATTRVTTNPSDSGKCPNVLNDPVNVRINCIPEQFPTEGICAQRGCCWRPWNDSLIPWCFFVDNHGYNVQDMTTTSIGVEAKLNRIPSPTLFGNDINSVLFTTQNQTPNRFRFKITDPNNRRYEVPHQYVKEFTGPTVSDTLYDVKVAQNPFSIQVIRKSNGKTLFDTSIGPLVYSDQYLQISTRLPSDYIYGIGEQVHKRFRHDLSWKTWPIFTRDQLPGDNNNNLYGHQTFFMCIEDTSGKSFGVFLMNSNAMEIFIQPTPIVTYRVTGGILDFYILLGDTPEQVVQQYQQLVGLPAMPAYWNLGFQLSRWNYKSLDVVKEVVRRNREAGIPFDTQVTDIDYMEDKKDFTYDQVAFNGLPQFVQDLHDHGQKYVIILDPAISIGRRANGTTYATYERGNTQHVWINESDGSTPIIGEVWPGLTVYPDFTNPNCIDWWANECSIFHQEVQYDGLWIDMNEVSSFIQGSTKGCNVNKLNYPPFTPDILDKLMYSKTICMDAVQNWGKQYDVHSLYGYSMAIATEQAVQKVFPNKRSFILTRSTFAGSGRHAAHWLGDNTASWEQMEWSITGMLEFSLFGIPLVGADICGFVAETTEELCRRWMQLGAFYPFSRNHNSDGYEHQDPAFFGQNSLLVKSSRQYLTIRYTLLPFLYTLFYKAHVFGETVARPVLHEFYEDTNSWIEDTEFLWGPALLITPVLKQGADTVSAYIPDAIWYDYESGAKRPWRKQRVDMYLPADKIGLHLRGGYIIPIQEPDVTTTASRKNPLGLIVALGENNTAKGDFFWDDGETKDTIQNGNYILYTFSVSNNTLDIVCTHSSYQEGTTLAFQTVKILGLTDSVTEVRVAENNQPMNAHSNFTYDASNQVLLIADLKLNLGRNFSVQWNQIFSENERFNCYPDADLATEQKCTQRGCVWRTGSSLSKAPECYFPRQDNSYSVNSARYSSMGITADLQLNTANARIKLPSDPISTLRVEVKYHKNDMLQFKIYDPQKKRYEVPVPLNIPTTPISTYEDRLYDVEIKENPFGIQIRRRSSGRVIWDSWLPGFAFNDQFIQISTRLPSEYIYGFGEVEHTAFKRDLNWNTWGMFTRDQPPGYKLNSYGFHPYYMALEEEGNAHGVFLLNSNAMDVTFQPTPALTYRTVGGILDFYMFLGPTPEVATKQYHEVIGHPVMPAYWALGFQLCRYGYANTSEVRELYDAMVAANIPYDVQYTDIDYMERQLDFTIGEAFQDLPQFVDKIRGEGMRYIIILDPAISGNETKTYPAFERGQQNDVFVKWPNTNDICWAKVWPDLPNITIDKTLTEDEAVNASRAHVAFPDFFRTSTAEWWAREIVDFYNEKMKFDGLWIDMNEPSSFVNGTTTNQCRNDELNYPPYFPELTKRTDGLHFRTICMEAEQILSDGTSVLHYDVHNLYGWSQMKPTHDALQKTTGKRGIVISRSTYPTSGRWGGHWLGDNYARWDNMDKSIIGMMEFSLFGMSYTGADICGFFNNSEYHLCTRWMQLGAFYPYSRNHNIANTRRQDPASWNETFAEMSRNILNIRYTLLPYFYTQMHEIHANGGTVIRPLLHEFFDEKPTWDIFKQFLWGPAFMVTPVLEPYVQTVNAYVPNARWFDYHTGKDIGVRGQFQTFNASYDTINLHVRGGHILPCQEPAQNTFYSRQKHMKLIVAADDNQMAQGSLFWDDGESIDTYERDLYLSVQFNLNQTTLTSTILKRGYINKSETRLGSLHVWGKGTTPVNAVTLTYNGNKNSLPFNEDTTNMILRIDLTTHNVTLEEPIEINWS

For `O=C[C@H](O)[C@@H](O)[C@@H](O)CO` [L-arabinose], the “participants that experienced discomforts such as loose bowel or diarrhea” value [1] is listed as “about 40%”, the “affinity to sucrase relative to sucrose” value (sucrase [2]) is listed as “approximately 5 times” and the “parts of sucrose inhibited from breakdown per one part of L-arabinose” value (sucrase [3]) is listed as “up to 20 parts”.
